For one assay, the system named is NCI-H1048 cells. The experiment in a line: MTT proliferation assay, NCI-H1048.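 Note: Dose-response in 96-well plates over 8 or 10 concentration points, with exposure spanning 3-4 cell doublings.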 The format is cell-based. As to conditions: 5 days compound exposure, 1:3 serial dilution starting at 10 μM.
For another assay, the target named is T1, CyclinA2/CDK2 (Homo sapiens, UniProt P20248).
T1 construct: purchased CRELUX Protein Services
As to the kind of experiment: Fluorescence Polarization (FP) competitive binding assay, Cyclin A2/Cdk2.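 Note: plates equilibrated two hours at room temperature before polarization reading, IC50 fitted from eight-concentration compound titration curves.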 To be noted: 8 nM Cyclin A2/Cdk2, 2 nM FAM probe; average of 2-3 independent experiments; read-out: Cyclin A FP IC50.

The next assay has as its system OVCAR3 cells. The experiment in a line: MTT proliferation assay, OVCAR3.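 Note: compound given as an 8- or 10-point series, one day after plating, with exposure covering roughly 3-4 cell doublings.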 It counts as cell-based. To be noted: 5 days compound exposure, 1:3 serial dilution starting at 10 μM.
In a further assay the target is T2, CyclinE1/CDK2 (Homo sapiens, UniProt P24864).
T2 construct: purchased Eurofins, discovery 14-475
As to the kind of experiment: Fluorescence Polarization (FP) competitive binding assay, Cyclin E1/Cdk2.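 Note: readings taken after two-hour equilibration at room temperature in HEPES buffer with NaCl, DTT, NP-40 and BSA, IC50 fitted from eight-concentration serial dilution series.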 As to conditions: 10 nM Cyclin E1/Cdk2, 2 nM FAM probe; average of 2-3 independent experiments; read-out: Cyclin E FP IC50.

The target in a further assay is T3, CyclinB1/CDK1 (Homo sapiens, UniProt P14635).
T3 construct: purchased Eurofins, discovery 14-450
As to the kind of experiment: Fluorescence Polarization (FP) competitive binding assay, Cyclin B1/Cdk1.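 Note: fluorescence polarization read after equilibration at room temperature, with IC50 taken from serially diluted dose-response curves.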 To be noted: 10 nM Cyclin B1/Cdk1, 2 nM FAM probe; average of 2-3 independent experiments; read-out: Cyclin B FP IC50.

Each structure is given as a SMILES string. *1 amine or outer side, *2 acyl side, *3 side chain or, on linkers, in order; H or OH if unused. Where a SMILES comes first, the peptide text is derived from it. Bridges are numbered along the chain shown (N, C = ends). [ ]: non-standard residue; d: D form. The star is where a group is joined. X42 = CN([C@@H](Cc1cc(Cl)ccc1-c1cnn(S(=O)(=O)C2CC2)c1)C(=O)[*:2])[*:1]; X120 = CN([C@@H](Cc1cc(Cl)ccc1-c1ccn(S(C)(=O)=O)c1)C(=O)[*:2])[*:1]; X130 = CN([C@@H](Cc1cc(F)ccc1-c1ccn(S(C)(=O)=O)c1)C(=O)[*:2])[*:1]; X137 = CN([C@@H](Cc1cc(F)ccc1-c1cnn(S(C)(=O)=O)c1)C(=O)[*:2])[*:1]; X82 = CN([C@@H](Cc1cc(Cl)ccc1-c1cnn(S(C)(=O)=O)c1)C(=O)[*:2])[*:1]; X171 = CC(=O)N1CC=C(c2ncc(Cl)cc2C[C@@H](C(=O)[*:2])N(C)[*:1])CC1; NMehhhLys(Me) = CN([C@@H](CCCCCCCN(C)[*:3])C(=O)[*:2])[*:1]; NMe(hhhLys) = CN([C@@H](CCCCCCCN[*:3])C(=O)[*:2])[*:1]; Oxane2carbonyl(2R-CF3) = O=C([C@@]1(C(F)(F)F)CCCCO1)*; cBuCO(3,3-F2-1-CF3) = O=C(C1(C(F)(F)F)CC(F)(F)C1)*; Pro(trans-4-F) = O=C(O)[C@@H]1C[C@@H](F)CN1; Pivaloyl(3,3,3-F3) = CC(C)(C(=O)*)C(F)(F)F; Gly(cPr) = N[C@H](C(=O)O)C1CC1

`CC(C)C[C@@H]1NC(=O)[C@@H](N(C)C(=O)[C@@H](NC(=O)[C@@H]2C[C@@H](F)CN2C(=O)C2(C(F)(F)F)CC(F)(F)C2)C2CC2)CCCCCCCNC(=O)[C@H](Cc2cc(Cl)ccc2-c2cnn(S(=O)(=O)C3CC3)c2)N(C)C1=O` [Example 300] ({cBuCO(3,3-F2-1-CF3)}-[Pro(trans-4-F)][Gly(cPr)][NMe(hhhLys)]L[X42]; lactam 3-C): the values for the GI50 in the assay with NCI-H1048 cells and in the assay with OVCAR3 cells were 30 nM and 40 nM, respectively. The IC50 at CyclinA2/CDK2 turned out to be 30 nM; at CyclinE1/CDK2, 680 nM; on CyclinB1/CDK1, 20 nM.

Regarding `CC(C)C[C@@H]1NC(=O)[C@@H](N(C)C(=O)[C@@H](NC(=O)[C@@H]2C[C@@H](F)CN2C(=O)C(C)(C)C(F)(F)F)C2CC2)CCCCCCCN(C)C(=O)[C@H](Cc2cc(Cl)ccc2-c2cnn(S(C)(=O)=O)c2)N(C)C1=O` [Example 301] ({Pivaloyl(3,3,3-F3)}-[Pro(trans-4-F)][Gly(cPr)][NMehhhLys(Me)]L[X82]; lactam 3-C), the GI50 with NCI-H1048 cells and in the assay with OVCAR3 cells was 20 nM throughout. Besides, the figures for the IC50 on CyclinA2/CDK2, at CyclinE1/CDK2 and at CyclinB1/CDK1 were 40 nM, 320 nM and 20 nM, respectively.

On to `CC(=O)N1CC=C(c2ncc(Cl)cc2C[C@H]2C(=O)NCCCCCCC[C@H](N(C)C(=O)[C@@H](NC(=O)[C@@H]3C[C@@H](F)CN3C(=O)C3(C(F)(F)F)CC(F)(F)C3)C3CC3)C(=O)N[C@@H](CC(C)C)C(=O)N2C)CC1` [Example 302] ({cBuCO(3,3-F2-1-CF3)}-[Pro(trans-4-F)][Gly(cPr)][NMe(hhhLys)]L[X171]; lactam 3-C), for which the GI50 in the assay on NCI-H1048 cells was determined as 140 nM; in the assay on OVCAR3 cells, 120 nM. Also, the IC50 on CyclinA2/CDK2 turned out to be 50 nM; on CyclinE1/CDK2, 3560 nM; at CyclinB1/CDK1, 20 nM.

Consider `CC(C)C[C@@H]1NC(=O)[C@@H](N(C)C(=O)[C@@H](NC(=O)[C@@H]2C[C@@H](F)CN2C(=O)[C@@]2(C(F)(F)F)CCCCO2)C2CC2)CCCCCCCN(C)C(=O)[C@H](Cc2cc(F)ccc2-c2cnn(S(C)(=O)=O)c2)N(C)C1=O` [Example 303] ({Oxane2carbonyl(2R-CF3)}-[Pro(trans-4-F)][Gly(cPr)][NMehhhLys(Me)]L[X137]; lactam 3-C), for which the GI50 with NCI-H1048 cells and in the assay with OVCAR3 cells was 10 nM in each case. Moreover, the IC50 at CyclinA2/CDK2 turned out to be 30 nM; on CyclinE1/CDK2, 100 nM; at CyclinB1/CDK1, 20 nM.

Turning to `CC(C)C[C@@H]1NC(=O)[C@@H](N(C)C(=O)[C@@H](NC(=O)[C@@H]2C[C@@H](F)CN2C(=O)C(C)(C)C(F)(F)F)C2CC2)CCCCCCCN(C)C(=O)[C@H](Cc2cc(F)ccc2-c2cnn(S(C)(=O)=O)c2)N(C)C1=O` [Example 304] ({Pivaloyl(3,3,3-F3)}-[Pro(trans-4-F)][Gly(cPr)][NMehhhLys(Me)]L[X137]; lactam 3-C), the GI50 in the assay on NCI-H1048 cells and in the assay with OVCAR3 cells was 10 nM throughout. For the same compound, the IC50 amounted to 40 nM at CyclinA2/CDK2, 190 nM at CyclinE1/CDK2 and 20 nM at CyclinB1/CDK1.

Regarding `CC(C)C[C@@H]1NC(=O)[C@@H](N(C)C(=O)[C@@H](NC(=O)[C@@H]2C[C@@H](F)CN2C(=O)C2(C(F)(F)F)CC(F)(F)C2)C2CC2)CCCCCCCN(C)C(=O)[C@H](Cc2cc(F)ccc2-c2ccn(S(C)(=O)=O)c2)N(C)C1=O` [Example 306] ({cBuCO(3,3-F2-1-CF3)}-[Pro(trans-4-F)][Gly(cPr)][NMehhhLys(Me)]L[X130]; lactam 3-C), the GI50 in the assay with NCI-H1048 cells and with OVCAR3 cells was 10 nM throughout. For the same compound, the IC50 was 20 nM at CyclinA2/CDK2, 200 nM at CyclinE1/CDK2 and 20 nM on CyclinB1/CDK1.

For the compound `CC(C)C[C@@H]1NC(=O)[C@@H](N(C)C(=O)[C@@H](NC(=O)[C@@H]2C[C@@H](F)CN2C(=O)C2(C(F)(F)F)CC(F)(F)C2)C2CC2)CCCCCCCN(C)C(=O)[C@H](Cc2cc(Cl)ccc2-c2ccn(S(C)(=O)=O)c2)N(C)C1=O` [Example 307] ({cBuCO(3,3-F2-1-CF3)}-[Pro(trans-4-F)][Gly(cPr)][NMehhhLys(Me)]L[X120]; lactam 3-C), the GI50 in the assay on NCI-H1048 cells and with OVCAR3 cells was 10 nM throughout. Further, the IC50 on CyclinA2/CDK2 amounted to 20 nM; at CyclinE1/CDK2 it was 440 nM; at CyclinB1/CDK1, 20 nM.

(Values after US20240408169A1 (priority 2023, published 2024).)
